In US20230192661A1, “1, 4, 5, 6-TETRAHYDROPYRIMIDINE-2-AMINE DERIVATIVE” (UBE Corporation, priority 2020, published 2023):

Tests used:
[1] = test system: TGF-β activation (phosphorylated SMAD3); assay: TGF-β activation inhibition test (inhibition of SMAD3 phosphorylation in TFK-1 cells); assay type: cell-based; settings: 48 h, fibronectin-coated plate, cultured 2 days, read-out: IC50 (rate of inhibition of phosphorylated SMAD3)
Procedure: In Test Example 3, the inhibition of TGF-β activation by a compound was detected with the inhibition of SMAD3 phosphorylation as an index. In Test Example 3, the same reagents as in Test Example 1 were used unless otherwise specified.
Human fibronectin was prepared at 14 μg/mL with PBS and then dispensed at 50 μL/well to a 96-well plate. The plate was left standing at room temperature for 1 hour or longer, followed by the removal of the fibronectin solution. The plate was washed with PBS and used as a coated plate.
A test compound dissolved in DMSO was added to RPMI medium 1640 (manufactured by Thermo Fisher Scientific, Inc., 11875) containing 1% FBS and 1% penicillin/streptomycin/amphotericin B to prepare a medium containing the test compound having a concentration of two times the final concentration. This medium was added at 100 μL/well to the coated plate. TFK-1 cells (Cell Resource Center for Biomedical Research, Institute of Development, Aging and Cancer, Tohoku University) cultured in RPMI medium 1640 containing 10% FBS and 1% penicillin/streptomycin/amphotericin B were suspended in RPMI medium 1640 containing 1% FBS and 1% penicillin/streptomycin/amphotericin B to prepare a cell suspension of 1×10^6 cells/mL. The prepared cell suspension was further added at 100 μL/well and cultured for 2 days in a 5% CO2 incubator (37° C.).
Phosphorylated SMAD3 in the cells thus cultured for 2 days was measured using Phospho-SMAD3 (Ser423/425) cellular kit (manufactured by cisbio, 63ADK025), and a DeltaF value was calculated according to the calculation expression of the kit. Inhibition when 10 μM LY364947 (FUJIFILM Wako Pure Chemical Corp., 123-05981) was added instead of the test compound was defined as 100% inhibition, and inhibition when DMSO was added instead was defined as 0% inhibition. The rate of inhibition of phosphorylated SMAD3 by the test compound was calculated according to the following expression.
Rate of inhibition of phosphorylated SMAD3 (%)=[1−{(DeltaF value in the case of adding the test compound)−(DeltaF value in the case of adding 10 μM LY364947)}/{(DeltaF value in the case of adding DMSO)−(DeltaF value in the case of adding 10 μM LY364947)}]×100
An IC50 value was calculated from the rate of inhibition of phosphorylated SMAD3 by the test compound. A: IC50<10 nM, B: 10 nM≤IC50<50 nM, C: 50 nM≤IC50<100 nM, or D: IC50≥100 nM.

αvβ1 = molecular target: T1, αvβ1 (UniProt G3HZ55+P06756); assay: αvβ1 cell adhesion inhibition test (αv-transfected CHO cells on human fibronectin); assay type: cell-based; settings: human fibronectin coating, 1 mM MnCl2, 1 hour, read-out: IC50 (rate of inhibition of cell adhesion, αvβ1)
T1 construct: expressed in transfected cells; host or cells: CHO cells deficient in α5 gene, transfected with αv gene
T1 sequence (P06756 31-889 limits assumed): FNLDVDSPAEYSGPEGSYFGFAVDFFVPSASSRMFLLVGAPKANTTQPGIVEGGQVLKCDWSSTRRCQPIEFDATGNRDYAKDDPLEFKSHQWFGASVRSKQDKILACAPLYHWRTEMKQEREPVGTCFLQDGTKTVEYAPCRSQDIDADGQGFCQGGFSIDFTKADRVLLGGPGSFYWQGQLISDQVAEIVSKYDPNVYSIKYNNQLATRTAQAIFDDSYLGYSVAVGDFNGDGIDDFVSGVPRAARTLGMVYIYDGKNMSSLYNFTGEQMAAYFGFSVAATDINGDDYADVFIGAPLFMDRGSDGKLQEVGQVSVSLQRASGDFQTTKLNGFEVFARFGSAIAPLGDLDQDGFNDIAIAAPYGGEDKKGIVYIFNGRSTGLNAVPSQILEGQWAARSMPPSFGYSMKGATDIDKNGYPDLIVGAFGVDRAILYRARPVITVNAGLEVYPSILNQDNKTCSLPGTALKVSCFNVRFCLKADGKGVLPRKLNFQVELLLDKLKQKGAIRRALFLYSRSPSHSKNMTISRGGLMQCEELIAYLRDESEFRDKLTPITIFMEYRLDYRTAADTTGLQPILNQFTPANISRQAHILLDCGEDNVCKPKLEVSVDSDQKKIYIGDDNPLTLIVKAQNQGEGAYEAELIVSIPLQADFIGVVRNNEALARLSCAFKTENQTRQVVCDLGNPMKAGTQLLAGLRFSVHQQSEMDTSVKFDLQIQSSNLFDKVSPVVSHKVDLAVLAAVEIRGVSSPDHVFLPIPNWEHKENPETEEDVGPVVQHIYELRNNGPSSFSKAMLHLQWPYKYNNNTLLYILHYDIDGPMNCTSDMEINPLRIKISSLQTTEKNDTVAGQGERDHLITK
T1 sequence (P06756 891-1048 limits assumed): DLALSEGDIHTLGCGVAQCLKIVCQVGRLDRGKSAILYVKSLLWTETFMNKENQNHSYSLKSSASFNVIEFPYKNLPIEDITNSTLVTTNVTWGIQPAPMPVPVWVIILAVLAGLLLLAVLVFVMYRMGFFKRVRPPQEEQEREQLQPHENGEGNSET
T1 sequence (G3HZ55 21-798): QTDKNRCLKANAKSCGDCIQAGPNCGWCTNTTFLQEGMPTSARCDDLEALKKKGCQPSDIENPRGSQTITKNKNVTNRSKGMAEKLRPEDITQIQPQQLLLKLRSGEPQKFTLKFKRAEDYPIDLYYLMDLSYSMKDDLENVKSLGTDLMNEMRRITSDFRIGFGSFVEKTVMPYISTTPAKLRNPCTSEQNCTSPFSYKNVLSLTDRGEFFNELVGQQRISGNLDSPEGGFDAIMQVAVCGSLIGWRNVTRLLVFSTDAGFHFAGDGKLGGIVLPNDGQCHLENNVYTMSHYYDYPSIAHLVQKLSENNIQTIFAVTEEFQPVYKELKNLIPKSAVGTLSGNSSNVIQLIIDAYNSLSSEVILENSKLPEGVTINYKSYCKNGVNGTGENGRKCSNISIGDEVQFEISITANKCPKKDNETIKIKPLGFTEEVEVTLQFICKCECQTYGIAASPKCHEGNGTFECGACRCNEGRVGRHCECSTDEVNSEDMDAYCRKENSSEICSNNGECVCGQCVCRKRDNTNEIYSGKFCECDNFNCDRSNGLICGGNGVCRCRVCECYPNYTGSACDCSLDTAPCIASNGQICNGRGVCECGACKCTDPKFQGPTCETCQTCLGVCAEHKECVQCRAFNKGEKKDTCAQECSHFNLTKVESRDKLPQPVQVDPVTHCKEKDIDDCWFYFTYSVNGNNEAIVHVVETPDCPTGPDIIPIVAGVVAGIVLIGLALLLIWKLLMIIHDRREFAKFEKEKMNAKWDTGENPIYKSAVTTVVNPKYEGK
Procedure: Test Example 1 was performed by partially modifying the method of Reed et al. (Sci Transl Med., 7 (288), 288ra79, 2015).
Human fibronectin (manufactured by Sigma-Aldrich Co. LLC, F0895) was prepared at 1.25 μg/mL with phosphate buffered saline (PBS), dispensed at 100 μL/well to a 96-well plate, and left standing overnight. The plate was washed with Hanks' balanced salt solution (HBSS), then subjected to blocking treatment with Dulbecco's modified Eagle medium (DMEM) containing 1% bovine serum-derived albumin (BSA) (FUJIFILM Wako Pure Chemical Corp., for cell culture, 017-22231), and used as a coated plate in the adhesion test.
αv-transfected cells (CHO cells deficient in α5 gene and transfected with αv gene) cultured in Ham's F-12 medium (FUJIFILM Wako Pure Chemical Corp., 087-08335) containing 10% fetal bovine serum (FBS), 1% penicillin/streptomycin/amphotericin B (manufactured by Thermo Fisher Scientific, Inc., 15240), 1 mM GlutaMAX Supplement (manufactured by Thermo Fisher Scientific, Inc., 35050), and 400 μg/mL hygromycin B (FUJIFILM Wako Pure Chemical Corp., 080-07683) were recovered and suspended in DMEM containing 1 mM MnCl2 (manufactured by Sigma-Aldrich Co. LLC, M1787) to prepare a cell suspension. A test compound dissolved in DMSO was added thereto.
The cell suspension of 1×10^6 cells/mL containing the test compound was added at 100 μL/well to the coated plate and left standing for 1 hour in a 5% CO2 incubator (37° C.). One hour later, the supernatant was removed, and the plate was washed with HBSS. The cells that adhered to each well in the plate were stained with crystal violet, and the cells were lysed, followed by absorbance measurement. Inhibition without substrate coating was defined as 100% inhibition, and inhibition when DMSO was added instead of the test compound was defined as 0% inhibition. The rate of inhibition of cell adhesion by the test compound was calculated according to the following expression.
Rate of inhibition of cell adhesion (%)=[1−{(Absorbance in the case of adding the test compound)−(Absorbance without substrate coating)}/{(Absorbance in the case of adding DMSO)−(Absorbance without substrate coating)}]×100
An IC50 value was calculated from the rate of inhibition of cell adhesion by the test compound. A: IC50<3 nM, B: 3 nM≤IC50<10 nM, C: 10 nM≤IC50<30 nM, D: 30 nM≤IC50<100 nM, or E: IC50≥100 nM.

| Structure (SMILES) | IC50 [1] | IC50 (αvβ1) |
| --- | --- | --- |
| O=C(O)C[C@H](NC(=O)CNC(=O)c1cc(NC2=NCC(F)CN2)c2cn[nH]c2c1)c1cccc(C(F)(F)F)c1Cl (stereo partly drawn) [Example 10-(b), (3S)-3-(2-chloro-3-(trifluoromethyl)phenyl)-3-(2-(4-((5-fluoro-1,4,5,6-tetrahydropyrimidin-2-yl)amino)-1H-indazole-6-carboxamido)acetamido)propanoic acid] | ≥ 100 nM | ≥ 100 nM |
| O=C(O)C[C@H](NC(=O)CNC(=O)c1cc(NC2=NCC(F)CN2)c2cn[nH]c2c1)c1cc(C(F)(F)F)ccc1F (stereo partly drawn) [Example 11-(b), (3S)-3-(2-(4-((5-fluoro-1,4,5,6-tetrahydropyrimidin-2-yl)amino)-1H-indazole-6-carboxamido)acetamido)-3-(2-fluoro-5-(trifluoromethyl)phenyl)propanoic acid] | < 10 nM | 3 to 10 nM |
| O=C(O)C[C@H](NC(=O)CNC(=O)c1cc(NC2=NCC(F)CN2)c2cn[nH]c2c1)c1cc(C(F)(F)F)ccc1Cl (stereo partly drawn) [Example 12-(b), (3S)-3-(2-chloro-5-(trifluoromethyl)phenyl)-3-(2-(4-((5-fluoro-1,4,5,6-tetrahydropyrimidin-2-yl)amino)-1H-indazole-6-carboxamido)acetamido)propanoic acid] | ≥ 100 nM | 3 to 10 nM |
| O=C(O)C[C@H](NC(=O)CNC(=O)c1cc(NC2=NCC(F)CN2)c2cn[nH]c2c1)c1ccc(F)c(C(F)(F)F)c1 (stereo partly drawn) [Example 13-(b), (3S)-3-(2-(4-((5-fluoro-1,4,5,6-tetrahydropyrimidin-2-yl)amino)-1H-indazole-6-carboxamido)acetamido)-3-(4-fluoro-3-(trifluoromethyl)phenyl)propanoic acid] | 10 to 50 nM | < 3 nM |
| Cc1ccc([C@H](CC(=O)O)NC(=O)CNC(=O)c2cc(NC3=NCC(F)CN3)c3cn[nH]c3c2)cc1C(F)(F)F (stereo partly drawn) [Example 14-(b), (3S)-3-(2-(4-((5-fluoro-1,4,5,6-tetrahydropyrimidin-2-yl)amino)-1H-indazole-6-carboxamido)acetamido)-3-(4-methyl-3-(trifluoromethyl)phenyl)propanoic acid] | < 10 nM | < 3 nM |
| O=C(O)C[C@H](NC(=O)CNC(=O)c1cc(NC2=NCC(F)CN2)c2cn[nH]c2c1)c1cc(Cl)c(F)c(C(F)(F)F)c1 (stereo partly drawn) [Example 15-(b), (3S)-3-(3-chloro-4-fluoro-5-(trifluoromethyl)phenyl)-3-(2-(4-((5-fluoro-1,4,5,6-tetrahydropyrimidin-2-yl)amino)-1H-indazole-6-carboxamido)acetamido)propanoic acid] | < 10 nM | < 3 nM |
| COc1ccc([C@H](CC(=O)O)NC(=O)CNC(=O)c2cc(NC3=NCC(F)CN3)c3cn[nH]c3c2)cc1Br (stereo partly drawn) [Example 16-(b), (3S)-3-(3-bromo-4-methoxyphenyl)-3-(2-(4-((5-fluoro-1,4,5,6-tetrahydropyrimidin-2-yl)amino)-1H-indazole-6-carboxamido)acetamido)propanoic acid] | 10 to 50 nM | < 3 nM |
| O=C(O)C[C@H](NC(=O)CNC(=O)c1cc(NC2=NCC(F)CN2)c2cn[nH]c2c1)c1cc(Cl)cc(Cl)c1 (stereo partly drawn) [Example 17-(b), (3S)-3-(3,5-dichlorophenyl)-3-(2-(4-((5-fluoro-1,4,5,6-tetrahydropyrimidin-2-yl)amino)-1H-indazole-6-carboxamido)acetamido)propanoic acid] | < 10 nM | < 3 nM |
| O=C(O)C[C@H](NC(=O)CNC(=O)c1cc(NC2=NCC(F)CN2)c2cn[nH]c2c1)c1cc(Cl)cc(Br)c1 (stereo partly drawn) [Example 18-(b), (3S)-3-(3-bromo-5-chlorophenyl)-3-(2-(4-((5-fluoro-1,4,5,6-tetrahydropyrimidin-2-yl)amino)-1H-indazole-6-carboxamido)acetamido)propanoic acid] | 10 to 50 nM | < 3 nM |
| O=C(O)C[C@H](NC(=O)CNC(=O)c1cc(NC2=NCC(F)CN2)c2cn[nH]c2c1)c1cc(Br)cc(Br)c1 (stereo partly drawn) [Example 19-(b), (3S)-3-(3,5-dibromophenyl)-3-(2-(4-((5-fluoro-1,4,5,6-tetrahydropyrimidin-2-yl)amino)-1H-indazole-6-carboxamido)acetamido)propanoic acid] | < 10 nM | < 3 nM |
| O=C(O)C[C@H](NC(=O)CNC(=O)c1cc(NC2=NCC(F)CN2)c2cn[nH]c2c1)c1cc(Br)cc(I)c1 (stereo partly drawn) [Example 20-(b), (3S)-3-(3-bromo-5-iodophenyl)-3-(2-(4-((5-fluoro-1,4,5,6-tetrahydropyrimidin-2-yl)amino)-1H-indazole-6-carboxamido)acetamido)propanoic acid] | < 10 nM | < 3 nM |
| O=C(O)C[C@H](NC(=O)CNC(=O)c1cc(NC2=NCC(F)CN2)c2cn[nH]c2c1)c1cc(Cl)cc(I)c1 (stereo partly drawn) [Example 21-(b), (3S)-3-(3-chloro-5-iodophenyl)-3-(2-(4-((5-fluoro-1,4,5,6-tetrahydropyrimidin-2-yl)amino)-1H-indazole-6-carboxamido)acetamido)propanoic acid] | < 10 nM | < 3 nM |
| O=C(O)C[C@H](NC(=O)CNC(=O)c1cc(NC2=NCC(F)CN2)c2cn[nH]c2c1)c1cc(Cl)ccc1F (stereo partly drawn) [Example 22-(b), (3S)-3-(5-chloro-2-fluorophenyl)-3-(2-(4-((5-fluoro-1,4,5,6-tetrahydropyrimidin-2-yl)amino)-1H-indazole-6-carboxamido)acetamido)propanoic acid] | 10 to 50 nM | 10 to 30 nM |
| O=C(O)C[C@H](NC(=O)CNC(=O)c1cc(NC2=NCC(F)CN2)c2cn[nH]c2c1)c1cc(Br)ccc1F (stereo partly drawn) [Example 23-(b), (3S)-3-(5-bromo-2-fluorophenyl)-3-(2-(4-((5-fluoro-1,4,5,6-tetrahydropyrimidin-2-yl)amino)-1H-indazole-6-carboxamido)acetamido)propanoic acid] | 10 to 50 nM | < 3 nM |
| O=C(O)C[C@H](NC(=O)CNC(=O)c1cc(NC2=NCC(F)CN2)c2cn[nH]c2c1)c1cc(OC(F)F)cc(C(F)(F)F)c1 (stereo partly drawn) [Example 24-(b), (3S)-3-(3-(difluoromethoxy)-5-(trifluoromethyl)phenyl)-3-(2-(4-((5-fluoro-1,4,5,6-tetrahydropyrimidin-2-yl)amino)-1H-indazole-6-carboxamido)acetamido)propanoic acid] | < 10 nM | < 3 nM |
| O=C(O)C[C@H](NC(=O)CNC(=O)c1cc(NC2=NCC(F)CN2)c2cn[nH]c2c1)c1cc(Cl)cc(OC(F)F)c1 (stereo partly drawn) [Example 25-(b), (3S)-3-(3-chloro-5-(difluoromethoxy)phenyl)-3-(2-(4-((5-fluoro-1,4,5,6-tetrahydropyrimidin-2-yl)amino)-1H-indazole-6-carboxamido)acetamido)propanoic acid] | < 10 nM | < 3 nM |
